This experiment relates to Mycobacterium tuberculosis variant bovis. The experiment can be described thus: Antimycobacterial activity against Mycobacterium tuberculosis variant bovis BCG for 7 days by resazurin-based microdilution assay. Format: functional. The note with it: 168 h, time 7 day.
The molecule `O=C(/C=C/c1ccccc1)N[C@@H](Cc1ccc(Cl)cc1)C(=O)O` registered an MIC of 606 µM.
The same measure for `CC[C@@H](CO)NCCN[C@@H](CC)CO` [ETHAMBUTOL]: 4.9 µM; for `O=C(/C=C/c1ccccc1)N[C@@H](Cc1ccc(I)cc1)C(=O)O`: 237 µM; for `O=C(/C=C/c1ccccc1)N[C@@H](Cc1ccc([N+](=O)[O-])cc1)C(=O)O`: 1270 µM.
The same measure for `O=C(/C=C/c1ccccc1)N[C@@H](Cc1ccccc1)C(=O)O`: more than 400 µg/mL.
The same measure for `O=C(/C=C/c1ccccc1)N[C@@H](Cc1ccc(Br)cc1)C(=O)O`: 1070 µM.

Source of the values: ChEMBL document CHEMBL5113462, “Synthesis and evaluation of inhibitors of Mycobacterium tuberculosis UGM using bioisosteric replacement” (Bioorg Med Chem, 2022).
